According to patent US20250375445A1, “METHODS OF TREATING A RAS PROTEIN-RELATED DISEASE OR DISORDER” (Revolution Medicines, Inc., priority 2024, published 2025):

Legend:
[1] = tested on: BRAF (V600E); assay: 2D Cell Viability, 120 hr, BRAF (V600E); assay type: cell-based
[2] = tested on: RAS WT; assay: Cellular pERK (2D, 4 hr), RAS WT; assay type: cell-based
[3] = target: T1, KRAS WT (Homo sapiens, UniProt P01116+P62937); assay: KRAS Binding of CypA:TCI (KD2), KRAS WT
[4] = target: CypA (Homo sapiens, UniProt P62937); assay: CypA Binding (KD1)
Sequence of CypA (P62937 whole entry): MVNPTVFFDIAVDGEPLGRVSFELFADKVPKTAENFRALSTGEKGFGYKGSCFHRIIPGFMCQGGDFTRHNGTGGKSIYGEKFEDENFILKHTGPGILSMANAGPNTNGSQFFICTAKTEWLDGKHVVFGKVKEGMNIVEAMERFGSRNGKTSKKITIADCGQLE
Excerpt: The KD1 value of a RAS(ON) multi-selective inhibitor can be determined using methods standard in the art, including but not limited to surface plasmon resonance (SPR), Fluorescence Polarization (FP), or isothermal titration calorimetry (ITC). In a non-limiting example, the binding affinity of compounds for CypA can be assessed by SPR using, for example, a Biacore 8K instrument. CypA is immobilized on a sensor chip (e.g., a streptavidin chip), and varying RAS(ON) multi-selective inhibitor compound concentrations can be flowed over the chip in assay buffer. […] In a specific embodiment, the KD1 of a RAS(ON) multi-selective inhibitor is determined using SPR.
The binding affinity of RAS(ON) multi-selective inhibitor compounds for CypA can also be assessed by FP competition with fluorescein tagged cyclosporine A by varying RAS(ON) multi-selective inhibitor compound concentrations. The signals can be fitted using a concentration response curve and the KD1 is calculated.
In some embodiments, the KD1 value of a RAS(ON) multi-selective inhibitor for CypA can be determined using ITC, a label-free biophysical technique that directly measures the heat released or absorbed during molecular interactions. […] As the inhibitor binds to CypA, the heat of binding is measured after each injection. […]

[5] = tested on: NCI-H441 KRAS^G12V NSCLC xenograft model; assay: NCI-H441 xenograft efficacy and tolerability; assay type: in vivo
Experimental: (§1) All mouse studies and procedures related to animal handling, care and treatment complied with all applicable regulations and guidelines of Institutional Animal Care and Use Committee (IACUC) approvals. Female BALB/c nude mice, 6-8 weeks old were used. Animal vendor was Shanghai Sino-British Sippr/BK Laboratory Animal Co., LTD. NCI-H441 tumor cells (ATCC-HTB-174) was maintained in vitro in RPMI-1640 medium supplemented with 10% heat inactivated FBS, 100 μg/mL streptomycin. Each mouse was inoculated subcutaneously at the right flank with 2×10^6 tumor cells in 0.2 ml media/matrigel for tumor development. Efficacy treatment started when the average tumor size reached 150-200 mm^3 in size, and the single dosed PKPD treatment started when tumor size reached 300-600 mm^3. Mice in the study were weighted and tumors were measured twice weekly.
NCI-H441 is a human lung tumor derived cell line. It harbors a KRAS^G12V mutation. It is typically grown in immune-deficient mice as a xenograft model. An NCI-H441 xenograft study was conducted in female BALB/C Nude mice. Each mouse was inoculated subcutaneously on the right flank with the single cell suspension of tumor cells (2×10^6) in 200 uL with BD Matrigel (1:1 ratio) for tumor development. Tumor width and length were measured with digital calipers, and the tumor volume in mm3 was calculated using the formula: Volume=((width)2×length)/2, where width and length are measured in mm.
Tumor growth inhibition (TGI, %) was calculated as percentage change in tumor volume for each group 100×(Vdayxc−Vdayx)/(Vdayxc−Vdayoc), where Vday0c is the starting mean tumor volume for the vehicle group, and Vdayx and Vdayxc are the corresponding tumor volumes for treatment group and control group on day x, calculated for the duration of the study. Mean tumor regression (where applicable, Vdayx<Vday0x) was calculated using the formula 100×(Vday0x−Vdayx)/Vday0x.
Differences in treatment arms as compared to vehicle controls were assessed by an ordinary one-way ANOVA of tumor volumes along with multiple comparisons via a post-hoc Tukey's test in GraphPad Prism software. Note, in some studies, additional test articles/groups (not reported here) were included and statistical analyses (ANOVA, post-hoc within group comparisons) were conducted on all treatment groups to allow for any interactions. The statistical significance values reported here represent the output of such analyses for RMC-6236 treatment arm.

[6] = target: NRAS WT (Homo sapiens, UniProt P01111+P62937); assay: RAS-RAF Disruption, NRAS WT; assay type: biochemical
Sequence of NRAS WT (P01111 whole entry): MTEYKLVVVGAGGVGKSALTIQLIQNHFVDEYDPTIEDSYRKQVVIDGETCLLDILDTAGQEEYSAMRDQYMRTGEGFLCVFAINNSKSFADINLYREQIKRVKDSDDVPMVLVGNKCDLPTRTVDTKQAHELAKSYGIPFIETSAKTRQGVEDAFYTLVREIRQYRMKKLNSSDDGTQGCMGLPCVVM
Sequence of NRAS WT (P62937 whole entry): as the sequence (P62937 whole entry) above

[7] = tested on: RAS WT; assay: 3D Cell Viability, 120 hr, RAS WT; assay type: cell-based
[8] = tested on: KRAS MUT (G12C, G12D, G12V); assay: 2D Cell Viability, 120 hr, KRAS MUT; assay type: cell-based
[9] = Oral bioavailability (multiple species); details: in vivo, read-out: Oral % F (multiple species)
[10] = tested on: KRAS MUT (G12C, G12D, G12V); assay: Cellular pERK (2D, 4 hr), KRAS MUT; assay type: cell-based
[11] = tested on: KRAS MUT (G12C, G12D, G12V); assay: RAS-RAF Disruption, KRAS MUT; assay type: biochemical
[12] = tested on: human DUSP6 in NCI-H441 xenograft tumor; assay: NCI-H441 xenograft single dose PKPD (exposure, human DUSP6); assay type: in vivo, mouse; details: single oral dose, NCI-H441 xenograft tumor (FIG. 2)
Experimental: as §1

[13] = target: T1, KRAS WT; assay: RAS-RAF Disruption, KRAS WT; assay type: biochemical
[14] = tested on: NRAS MUT (Q61H, Q61K, Q61L, Q61R); assay: RAS-RAF Disruption, NRAS MUT; assay type: biochemical
[15] = target: KRAS MUT (G12D, G12V); assay: KRAS Binding of CypA:TCI (KD2), KRAS MUT
[16] = Half-life after oral administration to patients; details: human, in vivo
[17] = Tolerability by dosing schedule in preclinical models
[18] = tested on: RAS mutant NSCLC or PDAC; assay: Phase I study of RMC-6236 (NCT05379985); assay type: in vivo, human
[19] = tested on: Capan-2, KRAS^G12V PDAC CDX model; assay: Capan-2 xenograft efficacy and tolerability; assay type: in vivo, mouse
Experimental: Capan-2 is a human pancreatic adenocarcinoma derived cell line. It harbors a KRAS^G12V mutation. It is typically grown in immune-deficient mice as a xenograft model. A Capan-2 xenograft study was conducted in female BALB/C Nude mice. Each mouse was inoculated subcutaneously on the right flank with the single cell suspension of tumor cells (4×10^6) in 100 uL RPMI 1640/Matrigel mixture (1:1 ratio) for tumor development. Tumor width and length were measured with digital calipers, and the tumor volume in mm3 was calculated using the formula: Volume=((width)2×length)/2, where width and length are measured in mm. Tumor growth inhibition (TGI, %) was calculated as percentage change in tumor volume for each group 100×(Vdayxc−Vdayx)/(Vdayxc−Vday0c), where Vday0c is the starting mean tumor volume for the vehicle group, and Vdayx and Vdayxc are the corresponding tumor volumes for treatment group and control group on day x, calculated for the duration of the study. Mean tumor regression (where applicable, Vdayx<Vday0x) was calculated using the formula 100×(Vday0x−Vdayx)/Vday0x.

[20] = 25 mg/kg daily, 50 mg/kg daily, 50 mg/kg Q2D and 100 mg/kg Q2D (FIG. 3)
[21] = patients with RAS mutant NSCLC or PDAC

T1 sequence (P01116 1-188 isoform P01116-2): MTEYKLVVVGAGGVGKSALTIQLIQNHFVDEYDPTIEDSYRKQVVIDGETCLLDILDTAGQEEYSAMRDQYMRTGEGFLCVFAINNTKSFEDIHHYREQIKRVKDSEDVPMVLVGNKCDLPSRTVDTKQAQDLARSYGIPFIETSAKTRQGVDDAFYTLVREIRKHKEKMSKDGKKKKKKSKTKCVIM
T1 sequence (P62937 whole entry): as the sequence (P62937 whole entry) above

`CCn1c(-c2cc(N3CCN(C)CC3)cnc2[C@H](C)OC)c2c3cc(ccc31)-c1csc(n1)C[C@H](NC(=O)[C@H](C(C)C)N(C)C(=O)N(C)C)C(=O)N1CCC[C@H](N1)C(=O)OCC(C)(C)C2` (atropisomer, axis not shown) [Compound A] gave an IC50 [1] of 1880 nM, an IC50 [2] of 0.4 nM and a Kd [3] of 81 nM. The Kd [4] was 12 nM, the “tolerability (dosing holidays)” value [5, 20] was “all treatment groups require some dosing holidays towards the end” and the tumor regression [5, 20] was “the same tumor regression”. The IC50 [6] was 33 nM, the IC50 [7] was 0.4 nM and the IC50 [8] was 0.2 to 1.2 nM. The bioavailability [9] was 20 to 38%, the IC50 [10] was 0.3 to 1 nM and the IC50 [11] was 23 to 165 nM. The “time of maximum DUSP6 suppression post single dose” value (“time” below) [12] was 24 h, the IC50 [13] was 42 nM and the IC50 [14] was 18 to 109 nM.
For `CCn1c(-c2cc(N3CCN(C)CC3)cnc2[C@H](C)OC)c2c3cc(ccc31)-c1csc(n1)C[C@H](NC(=O)[C@H]1C[C@@H]1C)C(=O)N1CCC[C@H](N1)C(=O)OCC(C)(C)C2` (atropisomer, axis not shown) [RMC-6236, daraxonrasib], the IC50 [1] was 7210 nM, the IC50 [2] was 1.5 nM and the “decrease in tumor volume” value ([5]; 25 mg/kg (Q2D) (FIG. 1)) was “lower decreases in tumor volume”. For the same molecule, the tumor regression ([5]; 25 mg/kg QD, NCI-H441 model (FIG. 6)) was 88%, the tumor regression ([5]; 100 mg/kg Q2D, NCI-H441 model (FIG. 6)) was 89% and the tumor regression ([5]; 100 mpk with increased interval of dosing, NCI-H441 model (FIG. 6)) was 68%. For the same molecule, the “tolerability, body weight” value ([5]; all doses and regimens of FIG. 6) was “without any significant body weight loss”, the tolerability ([5]; all regimens of FIG. 4 and FIG. 5) was “tolerated in vivo” and the IC50 [7] was 1.4 nM. It also gave an IC50 [8] of 1 to 3.1 nM, a bioavailability [9] of 24 to 33% and a Kd [15] of 131 to 364 nM. The half-life [16] was roughly 10 h, the IC50 [10] was 0.4 to 3.6 nM and the “body weight loss and tolerability” value ([17]; BID dosing) was “more severe body weight loss and intolerability”. The tolerated dose level ([17]; Q2D dosing) was “allows higher dose levels to be tolerated”, the body weight loss ([17]; Q2D dosing at an equivalent dose of QD dosing) was “slightly improves the body weight loss” and the IC50 [11] was 35 to 229 nM. For the same molecule, the “most common treatment-related adverse events (TRAEs)” value [18] was “rash and GI-related toxicities”, the antitumor activity [18, 21] was “encouraging antitumor activity” and the safety profile [18, 21] was “acceptable safety profile”. For the same molecule, the tumor regression ([19]; 25 mg/kg QD, Capan-2 (FIG. 7)) was 53%, the tumor regression ([19]; 35 mg/kg 5on2off, Capan-2 (FIG. 7)) was 28% and the tumor regression ([19]; 40 mg/kg 4on3off, Capan-2 (FIG. 7)) was 27%. The tumor regression ([19]; 50 mg/kg Q2D, Capan-2 (FIG. 7)) was 51%, the “tolerability, body weight” value ([19]; all tested doses and regimens, Capan-2 (FIG. 7)) was “without any significant body weight loss” and the tumor growth inhibition ([19]; all tested doses and regimens, oral administration (FIG. 7)) was “Tumor growth inhibition was observed”. For the same molecule, the “time” value [12] was 8 h and the IC50 [14] was 57 to 204 nM.
With `CCn1c(-c2cc(N3CCN(C4CC4)CC3)cnc2[C@H](C)OC)c2c3cc(ccc31)-c1csc(n1)C[C@H](CC(=O)[C@H]1[C@@H]3COC[C@@H]31)C(=O)N1CCC[C@H](N1)C(=O)OCC(C)(C)C2` (atropisomer, axis not shown) [RMC-7977] the IC50 [1] was 8360 nM, the IC50 [2] was 1.7 nM and the Kd [3] was 116 nM. It also gave a Kd [4] of 216 nM, an IC50 [6] of 57 nM and an IC50 [7] of 1.9 nM. For the same molecule, the IC50 [8] was 0.8 to 4.9 nM, the bioavailability [9] was 60% and the Kd [15] was 111 to 435 nM. For the same molecule, the IC50 [10] was 0.5 to 4.1 nM, the IC50 [11] was 31 to 175 nM and the “time” value [12] was 8 h. The IC50 [13] was 76 nM and the IC50 [14] was 48 to 144 nM.
